According to ChEMBL document CHEMBL1133250, “Antitumor promoting activities of 3-O-acyl-(-)epigallocatechins” (2000):

Tests used:
Format in all cases: functional
Human gammaherpesvirus 4 [1] = assay: Tested for % viability of Rajii cells, in an in vitro assay for TPA-induced EBV activation at concentration of 10 (mol ratio / 32 pmol TPA)
Human gammaherpesvirus 4 [2] = assay: In vitro assay for EBV activation in Raji cells induced by 12-O-tetradecanoylphorbol-13-acetate (TPA) at the concentration of 1000 (mol ratio / 32 pmol TPA)
Human gammaherpesvirus 4 [3] = assay: In vitro assay for EBV activation in Raji cells induced by 12-O-tetradecanoylphorbol-13-acetate (TPA) at the concentration of 10 (mol ratio / 32 pmol TPA)
Human gammaherpesvirus 4 [4] = assay: Tested for % viability of Rajii cells, in an in vitro assay for TPA-induced EBV activation at concentration of 100 (mol ratio / 32 pmol TPA)
Human gammaherpesvirus 4 [5] = assay: Tested for % viability of Rajii cells, in an in vitro assay for TPA-induced EBV activation at concentration of 500 (mol ratio / 32 pmol TPA)
Human gammaherpesvirus 4 [6] = assay: In vitro assay for EBV activation in Raji cells induced by 12-O-tetradecanoylphorbol-13-acetate (TPA) at the concentration of 500 (mol ratio / 32 pmol TPA); (%Viability=>80)
Human gammaherpesvirus 4 [7] = assay: In vitro assay for EBV activation in Raji cells induced by 12-O-tetradecanoylphorbol-13-acetate (TPA) at the concentration of 100 (mol ratio / 32 pmol TPA)
Human gammaherpesvirus 4 [8] = assay: Tested for % viability of Rajii cells, in an in vitro assay for TPA-induced EBV activation at concentration of 1000 (mol ratio / 32 pmol TPA)

Structure (SMILES)	Viability (Human gammaherpesvirus 4 [1]) [%]	Activation (Human gammaherpesvirus 4 [2]) [%]	Activation (Human gammaherpesvirus 4 [3]) [%]	Viability (Human gammaherpesvirus 4 [4]) [%]	Viability (Human gammaherpesvirus 4 [5]) [%]	Activation (Human gammaherpesvirus 4 [6]) [%]	Activation (Human gammaherpesvirus 4 [7]) [%]	Viability (Human gammaherpesvirus 4 [8]) [%]
CCCC(=O)O[C@@H]1Cc2c(O)cc(O)cc2O[C@@H]1c1cc(O)c(O)c(O)c1	>80	13.3	>94.5	>80	>80	>33.8	>65.1	60
CCCCCC(=O)O[C@@H]1Cc2c(O)cc(O)cc2O[C@@H]1c1cc(O)c(O)c(O)c1	>80	12	>93.5	>80	>80	>30.8	>62.4	60
O=C(Cc1ccccc1)O[C@@H]1Cc2c(O)cc(O)cc2O[C@@H]1c1cc(O)c(O)c(O)c1	>80	15.4	>96.3	>80	>80	>37.9	>67.8	60
CCc1ccc(C(=O)O[C@@H]2Cc3c(O)cc(O)cc3O[C@@H]2c2cc(O)c(O)c(O)c2)cc1	>80	13.2	>93.4	>80	>80	>35.4	>64.3	60
CCCCCCC(C)C(=O)O[C@@H]1Cc2c(O)cc(O)cc2O[C@@H]1c1cc(O)c(O)c(O)c1 (stereo partly specified)	>80	5	>87.5	>80	>80	>15.3	>54.1	60
O=C(CCc1ccccc1)O[C@@H]1Cc2c(O)cc(O)cc2O[C@@H]1c1cc(O)c(O)c(O)c1	>80	17.8	>96.5	>80	>80	>39	>68.4	60
CCCCCCCCC(C)C(=O)O[C@@H]1Cc2c(O)cc(O)cc2O[C@@H]1c1cc(O)c(O)c(O)c1 (stereo partly specified)	>80	7.9	>88.9	>80	>80	>20.1	>58.3	60
CCCCCCCCCCCCCCCC(=O)O[C@@H]1Cc2c(O)cc(O)cc2O[C@@H]1c1cc(O)c(O)c(O)c1	>80	22.7	>100	>80	>80	>41.6	>74.3	60
Cc1ccc(CC(=O)O[C@@H]2Cc3c(O)cc(O)cc3O[C@@H]2c2cc(O)c(O)c(O)c2)cc1	>80	14	>95.4	>80	>80	>35.3	>65.9	60
CCCCCCCC(=O)O[C@@H]1Cc2c(O)cc(O)cc2O[C@@H]1c1cc(O)c(O)c(O)c1	>80	6.5	>89.2	>80	>80	>19.3	>56	60
CCCCCCCCCCCCCC(=O)O[C@@H]1Cc2c(O)cc(O)cc2O[C@@H]1c1cc(O)c(O)c(O)c1	>80	18.3	>100	>80	>80	>35.2	>68.4	60
CCCCCCCCCCCCCCCCCC(=O)O[C@@H]1Cc2c(O)cc(O)cc2O[C@@H]1c1cc(O)c(O)c(O)c1	>80	31.5	>100	>80	>80	>64	>86.9	60
CCCCCCCCCC(=O)O[C@@H]1Cc2c(O)cc(O)cc2O[C@@H]1c1cc(O)c(O)c(O)c1	>80	9.3	>91.9	>80	>80	>22.7	>61.4	60
CCCCCCCCCCCC(=O)O[C@@H]1Cc2c(O)cc(O)cc2O[C@@H]1c1cc(O)c(O)c(O)c1	>80	12.7	>94.2	>80	>80	>31.9	>65.8	60
Cc1ccc(C(=O)O[C@@H]2Cc3c(O)cc(O)cc3O[C@@H]2c2cc(O)c(O)c(O)c2)cc1	>80	10.4	>91.7	>80	>80	>33	>62.8	60
Oc1cc(O)c2c(c1)O[C@H](c1cc(O)c(O)c(O)c1)[C@H](O)C2 [EPIGALLOCATECHIN]	>80	19.3	>100	>80	>80	>44.9	>73	60
O=C(O[C@@H]1Cc2c(O)cc(O)cc2O[C@@H]1c1cc(O)c(O)c(O)c1)c1cc(O)c(O)c(O)c1 [EPIGALOCATECHIN GALLATE]	>80	15.5	>95.9	>80	>80	>35	>69	60
